Counter-ions that a name gives are not always drawn.
Tests used:
[1] = Plasma elimination half life, dog, i.v.; format: in vivo; conditions: iv
[2] = Intraduodenal bioavailability; format: in vivo
[3] = Plasma elimination half life, rat, i.v.; format: in vivo; conditions: iv
[4] = target: T1, rabbit erythrocyte Na^+ /H^+ exchanger (Oryctolagus cuniculus, UniProt P23791); experiment: Inhibition of the rabbit erythrocyte Na^+ /H^+ exchanger (amiloride-sensitive sodium influx, flame photometry); format: cell-based, rabbit (New Zealand White); conditions: rabbit erythrocytes, cholesterol-fed, 37° C., pH 7.4
T1 construct: determine the Na+influx into the erythrocytes by way of Na^+ /H^+ exchange; endogenous in cells; host or cells: intact erythrocytes in heparinised blood of cholesterol-fed New Zealand White rabbits
T1 sequence (P23791 whole entry): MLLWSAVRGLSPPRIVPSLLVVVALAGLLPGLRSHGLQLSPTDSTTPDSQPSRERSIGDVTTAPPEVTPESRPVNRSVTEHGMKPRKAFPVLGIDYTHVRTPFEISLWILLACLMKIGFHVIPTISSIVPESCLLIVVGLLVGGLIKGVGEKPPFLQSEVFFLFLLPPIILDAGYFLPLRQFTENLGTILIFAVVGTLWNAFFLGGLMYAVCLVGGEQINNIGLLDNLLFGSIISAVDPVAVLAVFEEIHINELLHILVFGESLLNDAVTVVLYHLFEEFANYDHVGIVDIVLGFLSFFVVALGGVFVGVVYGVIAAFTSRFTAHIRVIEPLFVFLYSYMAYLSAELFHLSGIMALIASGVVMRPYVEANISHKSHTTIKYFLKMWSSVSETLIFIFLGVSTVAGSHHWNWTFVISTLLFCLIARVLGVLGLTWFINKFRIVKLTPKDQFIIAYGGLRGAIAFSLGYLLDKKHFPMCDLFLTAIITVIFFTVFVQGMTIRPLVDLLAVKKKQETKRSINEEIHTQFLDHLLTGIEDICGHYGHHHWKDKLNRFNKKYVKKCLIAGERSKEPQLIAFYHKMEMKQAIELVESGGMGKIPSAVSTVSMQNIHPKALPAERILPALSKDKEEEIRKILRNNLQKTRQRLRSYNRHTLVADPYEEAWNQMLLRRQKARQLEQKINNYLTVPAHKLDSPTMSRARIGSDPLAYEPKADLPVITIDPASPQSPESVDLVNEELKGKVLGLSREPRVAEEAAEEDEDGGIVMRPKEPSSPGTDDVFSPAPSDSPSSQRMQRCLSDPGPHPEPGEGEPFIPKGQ
Excerpt: Inhibition of the rabbit erythrocyte Na^+ /H^+ exchanger
New Zealand White rabbits (Ivanovas) were given a standard diet containing 2% cholesterol for six weeks in order to activate Na^+ /H^+ exchange and thereby making it possible to use flame photometry to determine the Na+influx into the erythrocytes by way of Na^+ /H^+ exchange. The blood was withdrawn from the aural arteries and rendered incoagulable by adding 25 IU of potassium heparin. A part of each sample was used for determining the hematocrit in duplicate by means of centrifugation. Aliquots of in each case 100 μl were used for measuring the initial content of Na^+ in the erythrocytes.
In order to determine the amiloride-sensitive sodium influx, 100 μl of each blood sample were in each case incubated, at 37° C. and pH 7.4, in 5 ml of a hyper osmolar salt/sucrose medium (mmol/l: 140 NaCl, 3 KCL, 150 sucrose, 0.1 ouabain, 20 tris(hydroxymethyl)aminomethane). After that, the erythrocytes were washed three times with an ice-cold MgCl2 /ouabain solution (mmol/l: 112 MgCl2, 0.1 ouabain) and hemolyzed in 2.0 ml of distilled water. The intracellular content of sodium was determined by flame photometry.
The net Na^+ influx was calculated from the difference between the initial sodium values and the sodium content of the erythrocytes after incubation. The amiloride-inhibitable sodium influx was obtained from the difference in the sodium content of the erythrocytes after incubating them with and without […] amiloride. This procedure was also used in the case of the novel compounds.

Row | half-life [1] [min] | Intraduodenal bioavailability [2] | half-life [3] [min] | IC50 [4] [nM] | SMILES
1 |  |  |  | 60 | NC(N)=NC(=O)c1cc(C(F)(F)F)cc(C2CCCC2)c1Cl [Example 6, 2-Chloro-3-cyclopentyl-5-trifluoromethylbenzoylguanidine hydrochloride]
2 |  |  |  | 30 | NC(N)=NC(=O)c1cc(C(F)(F)F)c(C2CCCC2)cc1Cl [Example 7, 2-Chloro4-cyclopentyl-5-trifluoromethylbenzoylguanidine hydrochloride]

Continued, compound first:

Row | SMILES | half-life [1] [min] | Intraduodenal bioavailability [2] | half-life [3] [min] | IC50 [4] [nM]
3 | COc1cc(Cl)c(C(=O)N=C(N)N)cc1C(F)(F)F [Example 1, 2-Chloro4-methoxy-5-trifluoromethylbenzoylguanidine hydrochloride] | 66 | good | 19.2 | 20
4 | NC(N)=NC(=O)c1cc(C(F)(F)F)cc(I)c1Cl [Example 2, 2-Chloro-3-iodo-5-trifluoromethylbenzoylguanidine hydrochloride] |  |  |  | 50
5 | CCCc1cc(C(F)(F)F)cc(C(=O)N=C(N)N)c1Cl [Example 4, 2-Chloro-3-n-propyl-5-trifluoromethylbenzoylguanidine hydrochloride] |  |  |  | 70
6 | CC(C)c1cc(C(F)(F)F)cc(C(=O)N=C(N)N)c1Cl [Example 5, 2-Chloro-3-isopropyl-5-trifluoromethylbenzoylguanidine hydrochloride] |  | good | 42 | 20
7 | CCCc1cc(Cl)c(C(=O)N=C(N)N)cc1C(F)(F)F [Example 8, 2-Chloro4-n-propyl-5-trifluoromethylbenzoylguanidine hydrochloride] |  |  |  | 10

From patent US5856574A, “Ortho-subsituted benzoylguanidines, process for their preparation, their use as a medicament or diagnostic, and medicament containing them” (Hoechst Aktiengesellschaft, priority 1996, dated 1999)
